Assay results: ChEMBL document CHEMBL1201862, “PubChem BioAssay data set” (2004)
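All cell lines were grown in 96-well plates and treated with compound for 48 hours. Abbreviation: GI50, concentration required for 50% inhibition of growth.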 The source made the active and inactive calls. Rule as the data show it: active = GI50 up to about 1.1 µM and inactive = higher.

Assays:
Experiment in all cases: NCI tumour cell line growth inhibition, 48 h
TK-10 = tested on: TK-10
IGROV-1 = tested on: IGROV-1
HCT-116 = tested on: HCT-116
OVCAR-3 = tested on: OVCAR-3
SW-620 = tested on: SW-620
SF-295 = tested on: SF-295
SF-539 = tested on: SF-539
OVCAR-5 = tested on: OVCAR-5
HL-60 = tested on: HL-60
EKVX = tested on: EKVX
HCC 2998 = tested on: HCC 2998
ACHN = tested on: ACHN
SK-MEL-5 = tested on: SK-MEL-5
CCRF-CEM = tested on: CCRF-CEM
SK-OV-3 = tested on: SK-OV-3
KM12 = tested on: KM12
UACC-257 = tested on: UACC-257
CAKI-1 = tested on: CAKI-1

Measured: GI50

CC(=O)OCCOCNC(=S)N/N=C/c1cc([N+](=O)[O-])ccc1O
inactive: TK-10 > 100 µM | IGROV-1 > 100 µM | HCT-116 64.3 µM | OVCAR-3 42.5 µM | SW-620 84.9 µM | SF-295 > 100 µM | SF-539 > 100 µM | OVCAR-5 > 100 µM | HL-60 > 100 µM | EKVX > 100 µM | HCC 2998 72.1 µM | ACHN > 100 µM | SK-MEL-5 > 100 µM | CCRF-CEM 56.6 µM | SK-OV-3 > 100 µM | KM12 > 100 µM | UACC-257 > 100 µM

CC1(C(=O)O)CCOc2ccccc21 (stereo not given)
inactive: TK-10 > 100 µM | IGROV-1 > 100 µM | HCT-116 > 100 µM | OVCAR-3 > 100 µM | SW-620 > 100 µM | SF-295 > 100 µM | SF-539 > 100 µM | OVCAR-5 > 100 µM | HL-60 > 100 µM | EKVX > 100 µM | HCC 2998 > 100 µM | ACHN > 100 µM | SK-MEL-5 > 100 µM | CCRF-CEM > 100 µM | CAKI-1 > 100 µM | UACC-257 > 100 µM

CC1CC2OC(=O)C3CC(O)CC(=C23)[C@@]12C[C@@H](c1ccoc1)OC2=O (stereo not given in full)
inactive: TK-10 > 100 µM | IGROV-1 > 100 µM | HCT-116 > 100 µM | OVCAR-3 > 100 µM | SW-620 > 100 µM | SF-295 > 100 µM | SF-539 > 100 µM | OVCAR-5 > 100 µM | HL-60 > 100 µM | EKVX > 100 µM | HCC 2998 > 100 µM | ACHN > 100 µM | SK-MEL-5 > 100 µM | CCRF-CEM > 100 µM | SK-OV-3 > 100 µM | KM12 > 100 µM | UACC-257 > 100 µM

CC(=O)OCCOCNC(=S)N/N=C/c1ccc2ccccc2n1
inactive: TK-10 69 µM | IGROV-1 44.6 µM | HCT-116 42.2 µM | OVCAR-3 35.3 µM | SW-620 36.1 µM | SF-295 44.6 µM | SF-539 46.9 µM | OVCAR-5 14.3 µM | HL-60 36.4 µM | EKVX 32.7 µM | HCC 2998 31.7 µM | ACHN 23 µM | SK-MEL-5 23.9 µM | CCRF-CEM 54 µM | SK-OV-3 43.1 µM | KM12 55.7 µM | UACC-257 48.9 µM

COc1ccc(NC(=O)C2C(=O)N(c3ccc(OC)cc3)C(=O)/C2=N\N)cc1 (stereo not given)
inactive: TK-10 > 100 µM | IGROV-1 > 100 µM | HCT-116 > 100 µM | SW-620 > 100 µM | SF-295 > 100 µM | SF-539 > 100 µM | OVCAR-5 > 100 µM | HL-60 > 100 µM | EKVX > 100 µM | HCC 2998 > 100 µM | ACHN > 100 µM | SK-MEL-5 > 100 µM | CCRF-CEM > 100 µM | KM12 > 100 µM | UACC-257 > 100 µM

CC(C)N(C(=O)C12C3C4C5(C#N)C3C1(C#N)C5C42C#N)C(C)C (stereo not given)
inactive: TK-10 > 100 µM | IGROV-1 > 100 µM | HCT-116 > 100 µM | OVCAR-3 > 100 µM | SW-620 > 100 µM | SF-295 > 100 µM | SF-539 > 100 µM | OVCAR-5 > 100 µM | HL-60 > 100 µM | EKVX > 100 µM | HCC 2998 > 100 µM | ACHN > 100 µM | SK-MEL-5 > 100 µM | CCRF-CEM > 100 µM | SK-OV-3 > 100 µM | KM12 > 100 µM | UACC-257 > 100 µM

Cc1c(Cl)cccc1NC(=O)CC1C(=O)Nc2ccccc2S1(=O)=O (stereo not given)
inactive: TK-10 25.8 µM | IGROV-1 15.3 µM | HCT-116 15.8 µM | OVCAR-3 16.6 µM | SW-620 20 µM | SF-295 19.7 µM | SF-539 14.7 µM | OVCAR-5 20.6 µM | HL-60 2.72 µM | EKVX 25.6 µM | HCC 2998 16.7 µM | ACHN 16.5 µM | SK-MEL-5 12.2 µM | CCRF-CEM 16.5 µM | CAKI-1 19.9 µM | UACC-257 24 µM

C[P+]1(c2ccccc2)CCCCC1
inactive: TK-10 > 100 µM | IGROV-1 > 100 µM | OVCAR-3 > 100 µM | SW-620 > 100 µM | SF-295 > 100 µM | SF-539 > 100 µM | OVCAR-5 > 100 µM | EKVX > 100 µM | HCC 2998 > 100 µM | ACHN > 100 µM | SK-MEL-5 > 100 µM | CCRF-CEM > 100 µM | SK-OV-3 > 100 µM | CAKI-1 > 100 µM | KM12 > 100 µM | UACC-257 > 100 µM

C=CCC1[C@@H](C(C)(C)C(C(C)=O)C(=O)C(=O)OC)OC(C(C)(C)C)N1C(=O)OC (stereo not given in full)
inactive: TK-10 > 100 µM | HCT-116 47.4 µM | OVCAR-3 > 100 µM | SF-295 > 100 µM | SF-539 > 100 µM | OVCAR-5 61.5 µM | EKVX > 100 µM | HCC 2998 > 100 µM | ACHN > 100 µM | SK-MEL-5 > 100 µM | CCRF-CEM 49 µM | SK-OV-3 > 100 µM | KM12 > 100 µM | UACC-257 > 100 µM
